These results are taken from patent US20220313620A1, “COMPOSITION FOR PREVENTING AND TREATING TAUOPATHIES” (SERVICIO ANDALUZ DE SALUD, priority 2019, published 2022).

The subject of one assay is Ghrelin. As to the kind of experiment: Plasma ghrelin (ELISA) after acute oral gavage in fasted rats. It is filed as in vivo. The note with it: oral 500 mg/kg, adult male Wistar rats, FIG. 3A / FIG. 4. On the procedure:
The protocol was approved by the Ethics Committee for Animal Experiments of the University of Malaga.
D-Pinitol (3-0-methyl-D-chiro-inositol) was generously provided by EURONUTRA SL (https://www.euronutra.com/, Malaga, Spain), in the form of crystalline fine powder (lot: PPN-M0201). For acute treatments, D-Pinitol was dissolved in water to be administered by gavage (orally) at different concentrations (100 mg/Kg and 500 mg/Kg), drug was administered at a volume of 1 ml/kg.
After 18 hours of fasting, D-Pinitol dissolved in water was administered acutely by gavage (100 mg/kg in a first study, and 500 mg/kg in a subsequent study). After administration, the animals were sacrificed in groups at different times (being time 0 the administration of D-Pinitol). For the first study (100 mg/kg), groups of animals were sacrificed at times: 10, 20, 30, 60, 120, 240 and 360 minutes after administration; for the second study (500 mg/kg), animals were sacrificed at times: 60, 120 and 240 minutes after administration. As a control group, a group was administered only with water (by gavage).
Animals were anesthetized with sodium pentobarbital (50 mg/Kg, i.p.), blood, brain and liver samples were collected. Blood was centrifuged (2100 g for 8 min, 4° C.) and the plasma kept for further analysis. Liver and brain samples were flash-frozen in liquid N2, then stored at −80° C. until further analysis.
The plasma levels of insulin and ghrelin were determined with an enzyme-linked immunosorbent assay (ELISA) method using commercial kits: EMD Millipore Corporation (Billerica, Mass., USA) Cat. #EZRMI-13K and Cat. #EZRGRT-91K, respectively. Glucagon levels in plasma was determined with a Glucagon Enzyme Immunoassay (EIA) Kit: Cat. #RAB0202 Sigma-Aldrich (Saint Louis, Mo., USA). All serum samples were assayed in duplicate within one assay, and results were expressed in terms of the particular standard hormone.

The subject of another assay is tau protein. Nature of the assay: Hippocampal tau phosphorylation and total tau (western blot) after 10 days of oral drinking. The format is in vivo, Wistar rats. The note with it: oral by drinking 100 mg/Kg for 10 days, hippocampus. On the procedure:
(§1) Animal experimental procedures were carried out in accordance with the European Communities directive 2010/63/EU and Spanish legislation (Real Decreto 53/2013). The protocol was approved by the Research and approved by Ethics Committee for Animal Experiments of the University of Malaga, Spain. In accordance with the ARRIVE guidelines, all efforts were made to minimize animal suffering and to reduce the number of animals used per experimental group. Chronic drinking experiments on Wistar rats were performed on 20 male rats. All adult rats, ageing 2 months (≈300 g of body weight), were provided by Charles River Laboratories (Barcelona, Spain). The animals were housed individually under a standard 12 h light-dark cycle in a room with temperature and humidity control. Water and rat chow pellets were provided ad libitum throughout the course of the present study.
(§2) Caromax®-D-Pinitol (3-O-methyl-d-chiro-inositol, DPIN, 98% purity) and Caromax®-D-Chiro-inositol (cis-1,2,3-trans-3,5,6-cyclohexanehexol, DCI) were provided by Euronutra SL (Málaga, Spain). They were dissolved in water to orally daily administration by drinking and/or gavage at dose of 100 mg/Kg of body weight (BW) in a 1 ml/kg of BW volume to Zucker and Wistar rats for 4 weeks (28 days) and 10 days, respectively (FIG. 1). During the drinking treatments, the concentration of inositols in the water were updated considering the daily increase of BW of the rats and the possible loss of water by evaporation.
(§3) Brain extract. Frozen brain samples (17 mg per sample) were homogenized in 1 mL of cold RIPA lysis buffer (50 mM Tris-HCl pH 7.4, 150 mM NaCl, 0.5% NaDOC, 1 mM EDTA, 1% Triton, 0.1% SDS, 1 mM Na3VO4, 1 mM NaF) supplemented with a protease cocktail (Hoffmann-Roche). The suspension was incubated for 2 hours at 4° C., followed by centrifugation at 12,000 rpm for 15 minutes at 4° C. The supernatant was transferred to a new clean centrifuge tube, and Bradford colorimetric method was used to determine the concentration of the total protein. The protein extracts were diluted 1:1 in loading buffer (DTT 2X) and heated for 5 minutes at 99° C. before being subjected to electrophoresis.
Western Blot Analysis. The tissue protein (10-15 μg) was subjected to electrophoresis on 4-12% Criterion XT Precast Bis-Tris gels (Bio-Rad, USA) for 30 minutes at 80V and 2 h at 150V. […] Bands were quantified by densitometric analysis using ImageJ software (Rasband, WS, ImageJ, US National Institutes of Health, Bethesda, Md., USA). […] The results were expressed as the protein/α-Adaptin ratio or phosphorylated/total protein ratio and normalized to the control group (Y axis represents ‘fold mean of the control values’).
All data are expressed as mean±SEM. […]

Assay [1] has as its system glycogen synthase kinase-3β (GSK-3β). As to the kind of experiment: Hippocampal GSK-3β phosphorylation and total level (western blot) after 10 days of oral administration. It is filed as in vivo, Wistar rats. Conditions: oral 100 mg/Kg for 10 days, hippocampus. How it is done:
as §1, §2, §3
Western Blot Analysis. The tissue protein (10-15 μg) was subjected to electrophoresis on 4-12% Criterion XT Precast Bis-Tris gels (Bio-Rad, USA) for 30 minutes at 80V and 2 h at 150V. Proteins were transferred onto a 0.2 μm nitrocellulose membrane (Bio-Rad, USA) for 1 h at 80V by wet transfer equipment. The membrane was washed twice for 5 min in TBST (10 mM Tris-HCl, 150 mM NaCl, 0.1% Tween 20, pH 7.6) and blocked with 2% Bovine Serum Albumin-Tris Buffered Saline Tween 20 (BSA-TBST) for one hour at room temperature on a shaker platform. Subsequently, the membrane was incubated with respective primary antibodies overnight at 4° C. diluted in 2% BSA-TBST (Table 2 for additional information). The following day, the membrane was washed three times for 5 min with TBST. An appropriate HRP conjugated rabbit/mouse secondary antibody (Promega) was diluted 1:10000 in 2% BSA-TST and incubated with the membrane for 1 h shaking at room temperature. Finally, the membrane was washed as above and exposed to chemiluminescent reagent (Santa Cruz, Biotechnology Inc.) for 5 min. Stripping/reproving steps were used when necessary. Respective membrane bound protein was then visualized by Chemiluminescence (ChemiDoc Imaging System, Bio-Rad). Bands were quantified by densitometric analysis using ImageJ software (Rasband, WS, ImageJ, US National Institutes of Health, Bethesda, Md., USA). Normalization was performed using a reference protein of the same membrane, the α-Adaptin. The results were expressed as the protein/α-Adaptin ratio or phosphorylated/total protein ratio and normalized to the control group (Y axis represents ‘fold mean of the control values’).
All data are expressed as mean±SEM. Statistical analysis was undertaken for studies where each group size was of, at least, n=5. […]
On the technique in general: In western blotting, separated proteins are transferred to a membrane and probed.

`OC1C(O)C(O)C(O)C(O)C1O` [DCI, (1R,2R,3S,4S,5S,6S)-cyclohexane-1,2,3,4,5,6-hexol]: in the assay on Ghrelin, the “circulating plasma Ghrelin concentration” value was “enhances”. The “quantity of phospho-tau (AT8: Ser202, Thr205) compared with vehicle group” value in the assay on tau protein (FIG. 7A.1) was “dropped to more than half”. Also, the “relative protein levels of total tau compared with vehicle group” value with tau protein (FIG. 7A.2) is given as “rise”. Further, in assay [1] (FIG. 9A.1), the “GSK-3β serine-9 phosphorylation” value is reported as “no effect”. Further, the “GSK-3β tyrosine-216 phosphorylation” value in assay [1] (FIG. 9A.2) was “no effect”. Besides, the “GSK-3β kinase activity (Ser9/Tyr216)” value in assay [1] (FIG. 9A.3) is listed as “neither enhance nor inhibition”.
